The results in this text go back to ChEMBL document CHEMBL1201862, “PubChem BioAssay data set” (2004).

Among the test systems are 786-0; A498; BT-549; DU-145; HL-60; HOP-92; HT-29; LOX IMVI; M14; MDA-MB-231; MDA-MB-435; NCI-H226; NCI-H460; NCI-H522; OVCAR-5; RXF 393; SF-295; SF-539; SK-OV-3; SW-620.
Holding throughout (assay): NCI tumour cell line growth inhibition, 48 h

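These data come from cells grown in 96-well plates and exposed to compound for 48 hours at five concentrations. At the GI50, growth is halved.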 Activity calls are given as the source filed them. Rule as the data show it: active = GI50 up to about 1.1 µM and inactive = higher. Where only a bound is given, the exact number is not on record here.

Turning to `CCN(CC)CC[S+]([O-])c1c2cc(OC)ccc2nc2ccc(OC)cc12` (stereo not drawn), the GI50 with 786-0 is 2.02 µM (inactive); with A498 it was 16.3 µM (inactive); in the assay on BT-549, 15.8 µM (inactive); in the assay on DU-145, 1.91 µM (inactive); with HL-60 it was 3.67 µM (inactive); in the assay on HOP-92 it was 3.28 µM (inactive). Moreover, the GI50 was 3.44 µM (inactive) with HT-29; 3.23 µM (inactive) in the assay on LOX IMVI; 9.55 µM (inactive) in the assay with M14; 13.6 µM (inactive) in the assay with MDA-MB-231; 9.46 µM (inactive) in the assay with MDA-MB-435; 18.1 µM (inactive) with NCI-H226. The GI50 with NCI-H460 is 27.7 µM (inactive); in the assay with NCI-H522, 0.603 µM (active); in the assay on OVCAR-5 it was 16.6 µM (inactive); in the assay with RXF 393, 7.33 µM (inactive); in the assay on SF-295 it was 21.8 µM (inactive); with SF-539, 2.32 µM (inactive). Besides, the values for the GI50 with SK-OV-3 and in the assay on SW-620 were 21.6 µM (inactive) and 3.03 µM (inactive), respectively.
As for `O=S(=O)(/C=C/C=C/[S+]([O-])c1ccccc1)c1ccccc1` (stereo not drawn), the GI50 in the assay with 786-0 is 0.625 µM (active); with A498 it was 6.97 µM (inactive); with BT-549, > 10 µM (inactive); in the assay on DU-145, > 4.42 µM (inactive); with HL-60 it was 0.327 µM (active); with HOP-92 it was 1.96 µM (inactive). The GI50 was 2.21 µM (inactive) in the assay with HT-29; 1.03 µM (active) in the assay with LOX IMVI; 0.685 µM (active) in the assay on M14; 2.81 µM (inactive) in the assay on MDA-MB-231; 2.07 µM (inactive) in the assay with MDA-MB-435; > 10 µM (inactive) in the assay on NCI-H226. In addition, the GI50 is > 10 µM (inactive) with NCI-H460; 1.59 µM (inactive) in the assay with NCI-H522; > 8.22 µM (inactive) with OVCAR-5; 1.58 µM (inactive) in the assay on RXF 393; > 10 µM (inactive) with SF-295; 8.09 µM (inactive) in the assay on SF-539. Besides, the GI50 with SK-OV-3 was > 10 µM (inactive); in the assay with SW-620 it was 1.3 µM (inactive).
Regarding `C(=N\NC1=NCCN1)/c1cccc2cc3ccncc3nc12`, the GI50 in the assay on 786-0 is 1.95 µM (inactive); in the assay on A498, 11.6 µM (inactive); in the assay with BT-549, 16 µM (inactive); in the assay with DU-145, 7.23 µM (inactive); in the assay on HL-60, 1.04 µM (active); in the assay with HOP-92 it was 1 µM (active). Moreover, the GI50 in the assay with HT-29 was 1.71 µM (inactive); with LOX IMVI, 1.73 µM (inactive); in the assay with M14 it was 12.6 µM (inactive); with MDA-MB-231 it was 2.15 µM (inactive); in the assay with MDA-MB-435 it was 2.49 µM (inactive); with NCI-H226, 8.28 µM (inactive). Besides, the GI50 is 4.36 µM (inactive) in the assay with NCI-H460; 3.33 µM (inactive) with NCI-H522; 2.77 µM (inactive) in the assay on RXF 393; 3.04 µM (inactive) in the assay with SF-295; 5.85 µM (inactive) in the assay with SF-539; 11.3 µM (inactive) with SK-OV-3. Besides, in the assay on SW-620, the GI50 is 1.94 µM (inactive).
Consider `CC(=O)OCC1OC(n2c3c(cc(C#N)c2=O)CCCCCC3)C(OC(C)=O)C(OC(C)=O)C1OC(C)=O` (stereo not drawn), for which the GI50 in the assay on 786-0, in the assay on A498, with BT-549, in the assay on DU-145, in the assay with HL-60 and in the assay with HOP-92 was > 100 µM (inactive) in each case. The GI50 in the assay on HT-29, in the assay with LOX IMVI, with M14, in the assay on MDA-MB-231, in the assay on MDA-MB-435 and in the assay with NCI-H226 was > 100 µM (inactive) throughout. Besides, the GI50 in the assay on NCI-H460, in the assay with NCI-H522, with OVCAR-5, in the assay on RXF 393, in the assay with SF-295 and in the assay with SF-539 was > 100 µM (inactive) throughout.
Consider `C=C1CN2CC(=C)CN(C1)CS(=O)(=O)N1CC(=C)CN(CC(=C)C1)S(=O)(=O)N1CC(=C)CN(CC(=C)C1)S(=O)(=O)C2`, for which the GI50 was 18.7 µM (inactive) in the assay with 786-0; 46.5 µM (inactive) in the assay on A498; 78.5 µM (inactive) in the assay with BT-549; 38.3 µM (inactive) in the assay with DU-145; 35 µM (inactive) in the assay with HL-60; 31.3 µM (inactive) in the assay on HOP-92. Also, the GI50 with HT-29 was > 100 µM (inactive); with LOX IMVI, > 100 µM (inactive); in the assay on M14, 37.6 µM (inactive); in the assay on MDA-MB-231, 24.2 µM (inactive); in the assay on MDA-MB-435, 43.9 µM (inactive); in the assay with NCI-H226, 27.7 µM (inactive). The GI50 is > 100 µM (inactive) with NCI-H460; 32.4 µM (inactive) with NCI-H522; 56.8 µM (inactive) in the assay with OVCAR-5; 19.5 µM (inactive) with RXF 393; 31.9 µM (inactive) in the assay on SF-295; 15.6 µM (inactive) with SF-539. In the assay on SW-620, the GI50 is 71.8 µM (inactive).
`Nc1csc(-c2scc3c2OCCO3)c1N`: the GI50 in the assay on 786-0 is 17.3 µM (inactive); with A498, 17.6 µM (inactive); in the assay on BT-549 it was 16.5 µM (inactive); in the assay on DU-145, 19.8 µM (inactive); in the assay on HL-60, 20.5 µM (inactive); in the assay with HOP-92 it was 19.4 µM (inactive). Besides, the GI50 with HT-29 was 20.7 µM (inactive); with LOX IMVI it was 16 µM (inactive); in the assay on M14 it was 17.8 µM (inactive); with MDA-MB-231, 20.6 µM (inactive); with MDA-MB-435, 15.5 µM (inactive); with NCI-H226, 17.3 µM (inactive). The GI50 with NCI-H460 was 22.5 µM (inactive); in the assay with NCI-H522 it was 16.3 µM (inactive); in the assay on OVCAR-5 it was 17.6 µM (inactive); with RXF 393 it was 17.9 µM (inactive); in the assay on SF-295 it was 17.7 µM (inactive); in the assay with SF-539, 24.9 µM (inactive). In the assay with SW-620, the GI50 is 26.2 µM (inactive).
Regarding `CCOC(=O)c1cc(-n2nnc3ccccc32)cn1C`, the GI50 with 786-0, with A498, with BT-549, in the assay on DU-145, with HL-60 and in the assay on HOP-92 was > 10 µM (inactive) in each case. Also, the GI50 with HT-29, in the assay on LOX IMVI, in the assay on M14, in the assay on MDA-MB-231, in the assay with MDA-MB-435 and in the assay with NCI-H226 was > 10 µM (inactive) in each case. In addition, the GI50 with NCI-H460, with NCI-H522, in the assay on OVCAR-5, with RXF 393, with SF-295 and in the assay on SF-539 was > 10 µM (inactive) in each case. In the assay with SK-OV-3, the GI50 was > 10 µM (inactive).
In the case of `c1ccc(CN2C3C4N(Cc5ccccc5)C2C2N(Cc5ccccc5)C(C(N2Cc2ccccc2)N4Cc2ccccc2)N3Cc2ccccc2)cc1`, the GI50 in the assay with 786-0, in the assay with A498, in the assay on BT-549, with DU-145, in the assay on HL-60 and with HOP-92 was > 100 µM (inactive) in each case. Further, the GI50 in the assay on HT-29, in the assay with LOX IMVI, in the assay with M14, with MDA-MB-231, in the assay with MDA-MB-435 and with NCI-H226 was > 100 µM (inactive) throughout. In addition, the GI50 in the assay on NCI-H522, with OVCAR-5, with RXF 393, in the assay on SF-295, in the assay on SF-539 and in the assay on SK-OV-3 was > 100 µM (inactive) throughout. Besides, the GI50 in the assay on SW-620 was > 100 µM (inactive).
With `Nc1ccccc1.O=C(O)C(C(F)(F)F)C(F)(F)F`, the GI50 with 786-0 was > 100 µM (inactive); in the assay on A498, > 100 µM (inactive); in the assay on BT-549, > 100 µM (inactive); in the assay with DU-145 it was 99.5 µM (inactive); in the assay on HL-60, > 100 µM (inactive); in the assay on HOP-92, > 100 µM (inactive). Further, the GI50 in the assay on HT-29, in the assay on LOX IMVI, with M14, in the assay with MDA-MB-231, in the assay on MDA-MB-435 and with NCI-H226 was > 100 µM (inactive) in each case. Moreover, the GI50 in the assay on NCI-H460, in the assay on NCI-H522, in the assay on OVCAR-5, with RXF 393, in the assay with SF-295 and in the assay with SF-539 was > 100 µM (inactive) in each case. Also, the GI50 in the assay on SK-OV-3 and in the assay on SW-620 was > 100 µM (inactive) each time.
Consider `CC(=O)OC1CC[C@@]2(C)C(CC[C@]3(C)C2CC=C2[C@@H]4C(C)[C@H](C)CCC4(C)CCC23C)[C@@]1(C)C(=O)O` (stereo partly drawn), for which the GI50 with 786-0 is 23.2 µM (inactive); in the assay with A498, 19.5 µM (inactive); in the assay on BT-549, 25 µM (inactive); in the assay on DU-145 it was 17.9 µM (inactive); with HL-60 it was 27.4 µM (inactive); in the assay with HOP-92, 21.2 µM (inactive). Moreover, the GI50 in the assay with HT-29 is 21.2 µM (inactive); with LOX IMVI, 20.9 µM (inactive); in the assay with M14, 22.3 µM (inactive); in the assay on MDA-MB-231, 20.9 µM (inactive); in the assay on MDA-MB-435, 19.8 µM (inactive); in the assay with NCI-H226, 22.1 µM (inactive). The GI50 with NCI-H460 is 23.5 µM (inactive); in the assay with NCI-H522, 19.2 µM (inactive); in the assay on OVCAR-5 it was 18 µM (inactive); in the assay on RXF 393, 21.7 µM (inactive); in the assay on SF-295 it was 17.6 µM (inactive); in the assay with SF-539, 21.4 µM (inactive). Besides, the results for the GI50 in the assay with SK-OV-3 and in the assay on SW-620 were 18.4 µM (inactive) and 21.9 µM (inactive), respectively.
